The source of these data is ChEMBL document CHEMBL3259671, “From virtual to clinical: The discovery of PGN-1531, a novel antagonist of the prostanoid EP4 receptor” (Bioorg Med Chem Lett, 2014).

In brackets after ≈: the same amount, converted by molar mass. Bounds are passed on as bounds.

One series can be described thus: Intrinsic clearance in human hepatocytes. The format is ADME, cell-based, Hepatocyte. As to conditions: read-out: CLH.
As for `COc1ccc(-c2ccc(OCc3cc(C(=O)[N-]S(=O)(=O)c4ccccc4C)oc3C)cc2)nc1.[Na+]` [BGC-20-1531], the CLint scaled amounted to 6.5 mL/min/kg.

The next series is described as follows: Intrinsic clearance in rat hepatocytes. The format is ADME, cell-based, Hepatocyte. As to conditions: read-out: CLH.
On to `COc1ccc(-c2ccc(OCc3cc(C(=O)[N-]S(=O)(=O)c4ccccc4C)oc3C)cc2)nc1.[Na+]` [BGC-20-1531], for which the CLint scaled was 2.7 mL/min/kg.

A further series is described as follows: Permeability across human Caco2 cells. The settings on record: Caco-2, read-out: permeability. The format is ADME, cell-based. A general note: Caco-2 monolayers are a common model of the intestinal barrier.
Regarding `COc1ccc(-c2ccc(OCc3cc(C(=O)[N-]S(=O)(=O)c4ccccc4C)oc3C)cc2)nc1.[Na+]` [BGC-20-1531], the Papp was determined as 14.5 ×10⁻⁶ cm/s.

The next series can be described thus: Solubility of the compound in 0.1 M phosphate buffer/[…] KCl at pH 7.4 after 24 hrs. The format is physicochemical.
Conditions: not given
As a reminder, the solubility is the concentration that dissolves in the medium under given conditions. Lower therefore signals a poorly soluble substance. In turn, `Cc1oc(C(=O)NS(=O)(=O)c2ccccc2)cc1COc1ccc(-c2ccccc2)cc1` registered a solubility at 24 h of 2 µg/mL (≈ 4.47 µM). `COc1ccc(-c2ccc(OCc3cc(C(=O)NS(=O)(=O)c4ccccc4)oc3C)cc2)cc1`: the concentration in solution (solubility at 24 h) was 11 µg/mL (≈ 23 µM). The same measure, in the same setting: in the case of `Cc1oc(C(=O)NS(=O)(=O)c2ccccc2)cc1COc1ccc(-c2ccc(OC(F)F)cc2)cc1` it was below 0.6 µg/mL; in that of `COc1ccc(-c2ccc(OCc3cc(C(=O)NS(=O)(=O)c4ccccc4)oc3C)cc2)nc1`, 30 µg/mL (≈ 62.7 µM). The same measure, in the same setting: then `CCCS(=O)(=O)NC(=O)c1cc(COc2ccc(-c3ccc(OC)cc3)cc2)c(C)o1`, with 7 µg/mL (≈ 15.8 µM); and `COc1ccc(-c2ccc(OCc3cc(C(=O)NS(=O)(=O)c4ccc(O)cc4)oc3C)cc2)cc1`, with 20 µg/mL (≈ 40.5 µM); and `COc1ccc(-c2ccc(OCc3cc(C(=O)NS(=O)(=O)c4c(C)noc4C)oc3C)cc2)cc1`, with 0.2 µg/mL (≈ 0.403 µM). Molecule `COc1ccc(-c2ccc(OCc3cc(C(=O)NS(=O)(=O)c4ccccc4)oc3C)cc2)c(C)c1` gave a solubility at 24 h of 20 µg/mL (≈ 40.7 µM). The same measure, in the same setting: then `COc1ccccc1-c1ccc(OCc2cc(C(=O)NS(=O)(=O)c3ccccc3)oc2C)cc1`, with 8 µg/mL (≈ 16.8 µM). Still for that read-out and setting: then `COc1ccc(-c2ccc(OCc3cc(C(=O)NS(=O)(=O)c4ccc(CN)cc4)oc3C)cc2)cc1`, with below 0.6 µg/mL. Consider `COc1ccc(-c2ccc(OCc3cc(C(=O)NS(=O)(=O)N(C)C)oc3C)cc2)cc1`, for which the concentration in solution (solubility at 24 h) was 10 µg/mL (≈ 22.5 µM).

In the case of `COc1ccc(-c2ccc(OCc3cc(C(=O)NS(=O)(=O)c4ccc(C)cn4)oc3C)cc2)cc1`, the solubility at 24 h stood at 5 µg/mL (≈ 10.2 µM).

`COc1ccc(-c2ccc(OCc3cc(C(=O)NS(=O)(=O)CCCN4CCOCC4)oc3C)cc2)cc1` came in with a solubility at 24 h of 20 µg/mL (≈ 37.8 µM). Still for that read-out and setting: in the case of `Cc1oc(C(=O)NS(=O)(=O)c2ccccc2)cc1CNc1ccc(-c2ccccc2)cc1` it was 300 µg/mL (≈ 672 µM); in that of `Cc1ccccc1S(=O)(=O)NC(=O)c1cc(CNc2ccc(-c3ccccc3)cc2)c(C)o1`, 20 µg/mL (≈ 43.4 µM).

For the molecule `Cc1noc(C)c1S(=O)(=O)NC(=O)c1cc(COc2ccc(-c3ccc(OC(F)F)cc3)cc2)c(C)o1`, the solubility at 24 h was below 0.6 µg/mL. The same measure, in the same setting: in the case of `Cc1ccccc1S(=O)(=O)NC(=O)c1cc(CNc2ccc(-c3ccc(OC(F)F)cc3)cc2)c(C)o1` it was 20 µg/mL (≈ 38 µM); in that of `COc1ccc(-c2ccc(OCc3cc(C(=O)NS(=O)(=O)c4c(C)noc4C)oc3C)cc2)nc1`, 90 µg/mL (≈ 181 µM); in that of `COc1ccc(-c2ccc(OCc3cc(C(=O)NS(=O)(=O)c4c(C)noc4C)oc3C)cc2)c(C)c1`, 200 µg/mL (≈ 392 µM).

As to `COc1ccc(-c2ccc(OCc3cc(C(=O)NS(=O)(=O)c4ccccc4C)oc3C)cc2)nc1` [BGC-20-1531 FREE BASE], the concentration in solution (solubility at 24 h) was 10 µg/mL (≈ 20.3 µM). Against the preceding molecule, the solubility at 24 h is about 20-fold lower.

The next series in a line: Bioavailability in rat. It is filed as ADME, organism-based. The settings on record: in vivo.
In general, bioavailability refers to dose-corrected exposure relative to a reference, in per cent. A high value points to much systemic uptake. In the case of `COc1ccc(-c2ccc(OCc3cc(C(=O)[N-]S(=O)(=O)c4ccccc4C)oc3C)cc2)nc1.[Na+]` [BGC-20-1531], the bioavailability came out at 84%.

A further series is described as follows: Half life in po dosed rat. The format is ADME, organism-based. The settings on record: in vivo.
One may read the half-life as the time in which the quantity being followed falls by half. Read a low half-life as rapid decline. Regarding `COc1ccc(-c2ccc(OCc3cc(C(=O)[N-]S(=O)(=O)c4ccccc4C)oc3C)cc2)nc1.[Na+]` [BGC-20-1531], the half-life was 2.3 h.
